ChEMBL document CHEMBL5532734, “Lysosomal Degradation of Extracellular Targets: Innovations and Implications” (ACS Med Chem Lett, 2024)

The compounds below were run against T1, Sortilin (Homo sapiens, UniProt Q99523) (assay: Binding affinity to 6-His tagged sortilin (unknown origin) assessed as equilibrium dissociation constant by MST analysis).
T1 sequence (Q99523 whole entry): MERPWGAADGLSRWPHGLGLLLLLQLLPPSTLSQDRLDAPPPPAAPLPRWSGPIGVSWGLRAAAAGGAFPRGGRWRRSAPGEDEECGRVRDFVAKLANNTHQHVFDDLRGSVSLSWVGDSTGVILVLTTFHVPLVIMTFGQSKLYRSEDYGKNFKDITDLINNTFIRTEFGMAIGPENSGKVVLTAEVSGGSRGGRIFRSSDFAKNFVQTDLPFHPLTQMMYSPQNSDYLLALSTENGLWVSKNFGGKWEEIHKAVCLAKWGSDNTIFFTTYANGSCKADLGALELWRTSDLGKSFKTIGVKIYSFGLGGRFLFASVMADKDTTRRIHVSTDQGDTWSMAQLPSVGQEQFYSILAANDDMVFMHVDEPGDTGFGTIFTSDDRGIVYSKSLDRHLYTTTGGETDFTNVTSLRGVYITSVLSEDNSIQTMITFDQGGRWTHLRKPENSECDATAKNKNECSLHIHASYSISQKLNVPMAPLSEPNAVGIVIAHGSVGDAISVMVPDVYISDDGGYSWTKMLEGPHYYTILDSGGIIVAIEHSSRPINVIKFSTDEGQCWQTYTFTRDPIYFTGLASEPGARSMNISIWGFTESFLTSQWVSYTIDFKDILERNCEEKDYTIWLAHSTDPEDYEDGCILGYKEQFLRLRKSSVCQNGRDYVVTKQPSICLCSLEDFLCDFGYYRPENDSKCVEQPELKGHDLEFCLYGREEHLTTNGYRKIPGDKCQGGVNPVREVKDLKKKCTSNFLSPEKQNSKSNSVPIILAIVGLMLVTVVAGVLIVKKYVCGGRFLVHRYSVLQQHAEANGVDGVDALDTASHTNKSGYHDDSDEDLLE

Kd [nM]	Structure (SMILES)
< 1	C[C@@H]1CN(c2ncc(-c3ccc4c(n3)N(Cc3cccnc3C#N)C(C)(C)C4=O)cn2)CCN1C(=O)COCCCCNC(=O)c1cccc(Oc2ccc(C(=O)N[C@@H](CCC(C)(C)C)C(=O)O)cn2)c1
< 1	C[C@@H]1CN(c2ncc(-c3ccc4c(n3)N(Cc3cccnc3C#N)C(C)(C)C4=O)cn2)CCN1C(=O)COCCCCCCCCNC(=O)c1cccc(Oc2ccc(C(=O)N[C@@H](CCC(C)(C)C)C(=O)O)cn2)c1
< 1	C[C@@H]1CN(c2ncc(-c3ccc4c(n3)N(Cc3cccnc3C#N)C(C)(C)C4=O)cn2)CCN1C(=O)CNC(=O)CCCCCCCCCNC(=O)c1cccc(Oc2ccc(C(=O)N[C@@H](CCC(C)(C)C)C(=O)O)cn2)c1

The next lines start with the compound.

Structure (SMILES)	Kd [nM]
CC(C)(C)CC[C@H](NC(=O)c1ccc(Oc2cccc(C(=O)NCCOCCOCCOCCOCCOCCNc3ncc(-c4ccc5c(n4)N(Cc4cccnc4C#N)C(C)(C)C5=O)cn3)c2)nc1)C(=O)O	< 1
CC(C)(C)CC[C@H](NC(=O)c1ccc(Oc2cccc(C(=O)NCCOCCOCCOCCOCCOCCOc3ncc(-c4ccc5c(n4)N(Cc4cccnc4C#N)C(C)(C)C5=O)cn3)c2)nc1)C(=O)O	< 1
CC(C)(C)CC[C@H](NC(=O)c1ccc(Oc2cccc(OCCOCCOCCOCCOCCOCCOCCNC(=O)CCC[C@@H]3SC[C@@H]4NC(=O)N[C@@H]43)c2)nc1)C(=O)O	1
